Experimental findings from US7439372B2, “Therapeutic compounds” (Allergan, Inc., priority 2006, dated 2008) are described below.

For this assay, the target named is T1, EP4 receptors (Homo sapiens, UniProt P35408).
T1 construct: expressed in transfected cells; host or cells: HEK-293
In words: Radioligand binding, [3H]PGE2, HEK-293 cells stably expressing EP4 receptors. Particulars: [3H]PGE2 competition. Here is the method:
HEK-293 cells stably expressing the human or feline FP receptor, or EP1, EP2, or EP4 receptors were washed with TME buffer, scraped from the bottom of the flasks, and homogenized for 30 sec using a Brinkman PT 10/35 polytron. TME buffer was added to achieve a final 40 ml volume in the centrifuge tubes (the composition of TME is 100 mM TRIS base, 20 mM MgCl2, […]; 10N HCl is added to achieve a pH of 7.4).
The cell homogenate was centrifuged at 19000 r.p.m. for 20 min at 4° C. using a Beckman Ti-60 rotor. The resultant pellet was resuspended in TME buffer to give a final 1 mg/ml protein concentration, as determined by Biorad assay. Radioligand binding competition assays vs. [^3H-]17-phenyl PGF2α (5 nM) were performed in a 100 μl volume for 60 min. Binding reactions were started by adding plasma membrane fraction. The reaction was terminated by the addition of 4 ml ice-cold TRIS-HCl buffer and rapid filtration through glass fiber GF/B filters using a Brandel cell harvester. The filters were washed 3 times with ice-cold buffer and oven dried for one hour.
[^3H-]PGE2 (specific activity 180 Ci mmol) was used as the radioligand for EP receptors. [^3H]17-phenyl PGF2α was employed for FP receptor binding studies. Binding studies employing EP1, EP2, EP4 and FP receptors were performed in duplicate in at least three separate experiments. A 200 μl assay volume was used. Incubations were for 60 min at 25° C. and were terminated by the addition of 4 ml of ice-cold 50 mM TRIS-HCl, followed by rapid filtration through Whatman GF/B filters and three additional 4 ml washes in a cell harvester (Brandel). Competition studies were performed using a final concentration of 5 nM [^3H]-PGE2, or 5 nM [^3H] 17-phenyl PGF2α and non-specific binding determined with 10^−5M of unlabeled PGE2, or 17-phenyl PGF2α, according to receptor subtype studied.

T1 sequence (P35408 whole entry): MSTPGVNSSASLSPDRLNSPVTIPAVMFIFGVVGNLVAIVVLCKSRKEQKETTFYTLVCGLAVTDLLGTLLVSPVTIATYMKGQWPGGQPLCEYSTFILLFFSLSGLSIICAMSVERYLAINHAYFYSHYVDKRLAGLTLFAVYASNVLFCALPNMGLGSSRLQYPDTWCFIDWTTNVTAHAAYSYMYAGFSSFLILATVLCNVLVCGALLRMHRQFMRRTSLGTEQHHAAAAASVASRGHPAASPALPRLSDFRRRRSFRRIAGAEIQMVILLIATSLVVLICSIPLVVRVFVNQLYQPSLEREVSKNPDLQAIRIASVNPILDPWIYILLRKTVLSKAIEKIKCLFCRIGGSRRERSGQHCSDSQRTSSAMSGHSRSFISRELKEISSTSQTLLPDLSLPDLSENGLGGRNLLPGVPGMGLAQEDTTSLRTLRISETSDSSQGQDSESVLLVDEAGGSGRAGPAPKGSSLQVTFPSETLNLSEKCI

As to `CCCCCC(O)c1ccc([C@H]2C(=O)CC[C@@H]2C/C=C\CCCC(=O)O)cc1` (stereo partly drawn) [compound 5], the affinity corresponds to a Ki of 4210 nM.

As to `CCCCCC(O)c1ccc([C@@H]2[C@@H](C/C=C\CCCC(=O)O)CC[C@H]2Cl)cc1` (stereo partly drawn) [compound 6], the Ki – broadly, the dissociation constant of the complex between target and ligand, obtained from inhibition or displacement – turned out to be 1030 nM.

Take `CCCCCC(O)c1ccc([C@H]2C(=O)C=C[C@@H]2CCCc2ccc(C(=O)O)s2)cc1` (stereo partly drawn) [compound 11]: the Ki turned out to be 1940 nM.
